IC50 data for 26 compounds are collected here from patent US20260102383A1, “LPAR1 Inhibitors” (AbbVie Inc., priority 2024, published 2026).

In the experiment the target is T1, human LPAR1 (Homo sapiens, UniProt Q92633).
T1 construct: host or cells: TangoEDG2-bla U2OS cells
Nature of the experiment: Arrestin assay (Arrestin Reporter EDG2-bla U2OS), inhibition of LPA-stimulated signal. The experiment is classed as cell-based. Particulars: TangoEDG2-bla U2OS cells expressing human LPAR1; 0.25 μM LPA; read-out: Arrestin Reporter EDG2-bla U2OS Human Merged IC50. The gist of the method:
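TangoEDG2-bla U2OS cells (1×10^4/well, plated 18-20 h) were preincubated 1 h at 37 °C with compound (12-point, 3-fold, 10 μM to 0.00006 μM), then stimulated 3 h with 0.25 μM LPA final. LiveBLAzer FRET B/G 460/530 nm emission ratio gave % inhibition; IC50 from 4-parameter variable-slope fit.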

T1 sequence (Q92633 whole entry): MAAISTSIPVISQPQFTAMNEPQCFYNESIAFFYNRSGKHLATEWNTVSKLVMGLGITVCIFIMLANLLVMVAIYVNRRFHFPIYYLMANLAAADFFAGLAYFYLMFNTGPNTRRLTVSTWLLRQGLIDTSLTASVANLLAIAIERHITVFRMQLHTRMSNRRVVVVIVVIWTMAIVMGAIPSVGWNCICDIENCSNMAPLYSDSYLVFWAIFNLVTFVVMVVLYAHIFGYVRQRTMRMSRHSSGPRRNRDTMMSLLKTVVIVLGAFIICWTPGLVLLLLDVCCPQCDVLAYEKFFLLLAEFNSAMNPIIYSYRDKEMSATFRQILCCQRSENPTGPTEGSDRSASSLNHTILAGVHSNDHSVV

As usually defined, the IC50 is the midpoint of a concentration-inhibition curve. Take `CC(C)c1ccnn1C1(C(=O)Nc2ccc(Cl)cc2OC(F)F)CCN(CC2(C(=O)O)[C@@H]3COC[C@@H]32)CC1` (stereo partly drawn) [Compound 177, (1S,5R)-6-[[4-[[4-chloro-2-(difluoromethoxy)phenyl]carbamoyl]-4-(5-isopropylpyrazol-1-yl)-1-piperidyl]methyl]-3-oxabicyclo[3.1.0]hexane-6-carboxylic acid]: the IC50 was 92.5 nM.

Take `COC1CN([C@@H](CN2CCC(C(=O)Nc3ccc(Cl)cc3OC(F)F)(n3nccc3C(C)C)CC2)C(=O)O)C1` [Compound 178, (2S)-3-[4-[[4-chloro-2-(difluoromethoxy)phenyl]carbamoyl]-4-(5-isopropylpyrazol-1-yl)-1-piperidyl]-2-(3-methoxyazetidin-1-yl)propanoic acid]: the IC50 was found to be 123 nM. With `CC(C)c1ccnn1C1(C(=O)Nc2ccc(Cl)cc2OC(F)F)CCN(Cc2c(C(=O)O)nnn2C)CC1` [Compound 179, 5-[[4-[[4-chloro-2-(difluoromethoxy)phenyl]carbamoyl]-4-(5-isopropylpyrazol-1-yl)-1-piperidyl]methyl]-1-methyl-triazole-4-carboxylic acid], the IC50 came out at 174 nM. Consider `CC(C)c1ccnn1C1(C(=O)Nc2ccc(Cl)cc2OC(F)F)CCN(CC2(C(=O)O)C[C@@H](C)O[C@@H](C)C2)CC1` (stereo partly drawn) [Compound 180, (2R,6S)-4-[[4-[[4-chloro-2-(difluoromethoxy)phenyl]carbamoyl]-4-(5-isopropylpyrazol-1-yl)-1-piperidyl]methyl]-2,6-dimethyl-tetrahydropyran-4-carboxylic acid], for which the IC50 amounted to 48.8 nM.

On to `COC1(C(=O)O)CC(N2CCC(C(=O)Nc3ccc(Cl)cc3OC(F)F)(n3nccc3C(C)C)CC2)C1` (centres unmarked) [Compound 181, 3-[4-[[4-chloro-2-(difluoromethoxy)phenyl]carbamoyl]-4-(5-isopropylpyrazol-1-yl)-1-piperidyl]-1-methoxy-cyclobutanecarboxylic acid], for which the IC50 came out at 87.7 nM. Next, `CC(C)c1ccnn1C1(C(=O)Nc2ccc(Cl)cc2OC(F)F)CCN(C[C@@H](CO)C(=O)O)CC1` [Compound 182]: 36.3 nM; `CC(C)c1ccnn1C1(C(=O)Nc2ccc(Cl)cc2OC(F)F)CCN(C[C@H](CO)C(=O)O)CC1` [Compound 183, (2R)-2-[[4-[[4-chloro-2-(difluoromethoxy)phenyl]carbamoyl]-4-(5-isopropylpyrazol-1-yl)-1-piperidyl]methyl]-3-hydroxy-propanoic acid]: 39.4 nM. Next, `CO[C@H]1CC[C@H]([C@@H](CN2CCC(C(=O)Nc3ccc(Cl)cc3OC(F)F)(n3nccc3C(C)C)CC2)C(=O)O)CC1` [Compound 187, (2S)-3-[4-[[4-chloro-2-(difluoromethoxy)phenyl]carbamoyl]-4-(5-isopropylpyrazol-1-yl)-1-piperidyl]-2-((1r,4S)-4-methoxycyclohexyl) propanoic acid]: 75.9 nM; `COCCC(CN1CCC(C(=O)Nc2ccc(Cl)cc2OC(F)F)(n2ncc(F)c2C(C)C)CC1)C(=O)O` (centres unmarked) [Compound 188, 2-[[4-[[4-chloro-2-(difluoromethoxy)phenyl]carbamoyl]-4-(4-fluoro-5-isopropyl-pyrazol-1-yl)-1-piperidyl]methyl]-4-methoxy-butanoic acid]: 38.3 nM; `Cc1cnn(CC(CN2CCC(C(=O)Nc3ccc(Cl)cc3OC(F)F)(n3nccc3C(C)C)CC2)C(=O)O)c1` (centres unmarked) [Compound 189, 2-[[4-[[4-chloro-2-(difluoromethoxy)phenyl]carbamoyl]-4-(5-isopropylpyrazol-1-yl)-1-piperidyl]methyl]-3-(4-methylpyrazol-1-yl)propanoic acid]: 31.2 nM. `COCC[C@@H](CN1CCC(C(=O)Nc2ccc(Cl)cc2OC(F)F)(n2ncc(F)c2C(C)C)CC1)C(=O)O` [Compound 190, (2S)-2-[[4-[[4-chloro-2-(difluoromethoxy)phenyl]carbamoyl]-4-(4-fluoro-5-isopropyl-pyrazol-1-yl)-1-piperidyl]methyl]-4-methoxy-butanoic acid]: the IC50 stood at 37.9 nM.

Turning to `COCC[C@H](CN1CCC(C(=O)Nc2ccc(Cl)cc2OC(F)F)(n2ncc(F)c2C(C)C)CC1)C(=O)O` [Compound 191, (2R)-2-[[4-[[4-chloro-2-(difluoromethoxy)phenyl]carbamoyl]-4-(4-fluoro-5-isopropyl-pyrazol-1-yl)-1-piperidyl]methyl]-4-methoxy-butanoic acid], the IC50 is 33.4 nM. The figure for `COc1cnn(CC(CN2CCC(C(=O)Nc3ccc(Cl)cc3OC(F)F)(n3nccc3C(C)C)CC2)C(=O)O)c1` (centres unmarked) [Compound 193, 2-[[4-[[4-chloro-2-(difluoromethoxy)phenyl]carbamoyl]-4-(5-isopropylpyrazol-1-yl)-1-piperidyl]methyl]-3-(4-methoxypyrazol-1-yl)propanoic acid] is 31.3 nM; for `CC(C)c1ccnn1C1(C(=O)Nc2ccc(Cl)cc2OC(F)F)CCN(C[C@@H](C(=O)O)[C@H]2C[C@@H](C)O[C@@H](C)C2)CC1` [Compound 195, (25)-3-[4-[[4-chloro-2-(difluoromethoxy)phenyl]carbamoyl]-4-(5-isopropylpyrazol-1-yl)-1-piperidyl]-2-[(2R,4r,6S)-2,6-dimethyltetrahydropyran-4-yl]propanoic acid] it is 67.6 nM. Next, `CC(C)c1ccnn1C1(C(=O)Nc2ccc(Cl)cc2OC(F)F)CCN(CC(C(=O)O)C2COCCOC2)CC1` (centres unmarked) [Compound 196, 3-[4-[[4-chloro-2-(difluoromethoxy)phenyl]carbamoyl]-4-(5-isopropylpyrazol-1-yl)-1-piperidyl]-2-(1,4-dioxepan-6-yl)propanoic acid]: 34.7 nM.

Consider `COC1(C(=O)O)CC(N2CCC(C(=O)Nc3ccc(Cl)cc3OC(F)F)(n3ncc(F)c3C(C)C)CC2)C1` (centres unmarked) [Compound 199, 3-[4-[[4-chloro-2-(difluoromethoxy)phenyl]carbamoyl]-4-(4-fluoro-5-isopropyl-pyrazol-1-yl)-1-piperidyl]-1-methoxy-cyclobutanecarboxylic acid], for which the IC50 turned out to be 40.4 nM.

For `COC1CC(C(CN2CCC(C(=O)Nc3ccc(Cl)cc3OC(F)F)(n3nccc3C(C)C)CC2)C(=O)O)C1` (centres unmarked) [Compound 200, 3-[4-[[4-chloro-2-(difluoromethoxy)phenyl]carbamoyl]-4-(5-isopropylpyrazol-1-yl)-1-piperidyl]-2-(3-methoxycyclobutyl) propanoic acid], the IC50 worked out at 37.7 nM.

`COc1cnn(C[C@@H](CN2CCC(C(=O)Nc3ccc(Cl)cc3OC(F)F)(n3nccc3C(C)C)CC2)C(=O)O)c1` [Compound 201, (2R)-2-[[4-[[4-chloro-2-(difluoromethoxy)phenyl]carbamoyl]-4-(5-isopropylpyrazol-1-yl)-1-piperidyl]methyl]-3-(4-methoxypyrazol-1-yl)propanoic acid]: the IC50 is 30.6 nM. As for `COc1cnn(C[C@H](CN2CCC(C(=O)Nc3ccc(Cl)cc3OC(F)F)(n3nccc3C(C)C)CC2)C(=O)O)c1` [Compound 202, (2S)-2-[[4-[[4-chloro-2-(difluoromethoxy)phenyl]carbamoyl]-4-(5-isopropylpyrazol-1-yl)-1-piperidyl]methyl]-3-(4-methoxypyrazol-1-yl)propanoic acid], the half-inhibitory concentration (IC50) is 46 nM. Next, `CC(C)c1ccnn1C1(C(=O)Nc2ccc(Cl)cc2OC(F)F)CCN(CC(C(=O)O)C(C)O)CC1` (centres unmarked) [Compound 203, 2-[[4-[[4-chloro-2-(difluoromethoxy)phenyl]carbamoyl]-4-(5-isopropylpyrazol-1-yl)-1-piperidyl]methyl]-3-hydroxy-butanoic acid]: 66.6 nM. Next, `CO[C@]1(C(=O)O)C[C@@H](N2CCC(C(=O)Nc3ccc(Cl)cc3OC(F)F)(n3ncc(F)c3C(C)C)CC2)C1` [Compound 204, (1r,3r)-3-[4-[[4-chloro-2-(difluoromethoxy)phenyl]carbamoyl]-4-(4-fluoro-5-isopropyl-pyrazol-1-yl)-1-piperidyl]-1-methoxy-cyclobutanecarboxylic acid]: 46.9 nM; `COC[C@H](CN1CCC(C(=O)Nc2ccc(Cl)cc2OC(F)F)(n2ncc(Cl)c2C(C)C)CC1)C(=O)O` [Compound 205, (2S)-2-[[4-[[4-chloro-2-(difluoromethoxy)phenyl]carbamoyl]-4-(4-chloro-5-isopropyl-pyrazol-1-yl)-1-piperidyl]methyl]-3-methoxy-propanoic acid]: 17.9 nM.

On to `COC[C@@H](CN1CCC(C(=O)Nc2ccc(Cl)cc2OC(F)F)(n2ncc(Cl)c2C(C)C)CC1)C(=O)O` [Compound 206, (2R)-2-[[4-[[4-chloro-2-(difluoromethoxy)phenyl]carbamoyl]-4-(4-chloro-5-isopropyl-pyrazol-1-yl)-1-piperidyl]methyl]-3-methoxy-propanoic acid], for which the IC50 amounted to 16.9 nM.

In the case of `COCC[C@H](CN1CCC(C(=O)Nc2ccc(Cl)cc2OC(F)F)(n2ncc3c2C(C)(C)OC3)CC1)C(=O)O` [Compound 207, (2R)-2-[[4-[[4-chloro-2-(difluoromethoxy)phenyl]carbamoyl]-4-(6,6-dimethyl-4H-furo[3,4-c]pyrazol-1-yl)-1-piperidyl]methyl]-4-methoxy-butanoic acid], the IC50 was 93.7 nM. Regarding `COC[C@H](CN1CCC(C(=O)Nc2ccc(Cl)cc2OC(F)F)(n2ncc3c2C(C)(C)OC3)CC1)C(=O)O` [Compound 208, (2S)-2-[[4-[[4-chloro-2-(difluoromethoxy)phenyl]carbamoyl]-4-(6,6-dimethyl-4H-furo[3,4-c]pyrazol-1-yl)-1-piperidyl]methyl]-3-methoxy-propanoic acid], the IC50 is 94.4 nM. `CC(C)c1c(F)cnn1C1(C(=O)Nc2ccc(Cl)cc2OC(F)F)CCN(C[C@@H](CO)C(=O)O)CC1` [Compound 209, (2S)-2-[[4-[[4-chloro-2-(difluoromethoxy)phenyl]carbamoyl]-4-(4-fluoro-5-isopropyl-pyrazol-1-yl)-1-piperidyl]methyl]-3-hydroxy-propanoic acid]: the IC50 was 33.6 nM.
